# pKd: −log10 of the molar value. Where two headings read alike, the source gives them in different places.
# Legend:
# [1] = test system: AGS cells; experiment: cells; conditions: Homo sapiens, 48 h
# Description: (§1) FIG. 11. […] Parallel wells of untreated cells were used as negative control. Cell viability was assessed by using the trypan blue assay. Percentage of alive cells for each treatment are calculated as percentage using the untreated cell as reference. […] Statistical differences were tested using Student's t test. All statistical tests were two sided. p=***<0.001, **<0.01, *<0.05, ns=not significant.
# as §1, with “14.” for “11.”, “p=*<0.05,” for “p=***<0.001,”, “***<0.001.” for “*<0.05, ns=not significant.”
# (§2) To determine the effects of eM and eF-DnaKs on HCT116 and AGS cells lines treated with different anti-cancer drugs, cells were plated 200,000 cells/well in 6-wells plates. After 24 h, both eM-DnaK and eF-DnaK were added to the cultures at a concentration of 10 ug/ml. […] Parallel cultures of untreated cells were the negative controls. […] After 48 h of treatment with the anti-cancer drugs, cell monolayers were washed in PBS, trypsinized and cell viability was measured using the trypan blue assay. The trypan blue exclusion assay allows for a direct identification and enumeration of live (unstained) and dead (blue) cells in the given population.
# (§3) More in detail, we pre-treated both exogenous DnaKs with ARV-1502 (25 μg/ml) before adding them to the culture of HCT116 or AGS cells. After 3 h of incubation the complex was added to the culture. After 24 h the cells were treated with the anti-cancer drugs and then subjected to count with trypan blue as previously described. Parallel cultures of cells treated with the drugs and DnaKs not complexed with ARV-1502 were used as control.
# [2] = test system: HCT116 cells; experiment: cells; conditions: Homo sapiens, HCT-116, 48 h, 48 h
# Description: as §1
# as §1, with “14.” for “11.”, “p=*<0.05,” for “p=***<0.001,”, “***<0.001.” for “*<0.05, ns=not significant.”
# as §2, §3
# [3] = test system: HCT116 cells infected with Mycoplasma; experiment: Cell viability of Mycoplasma-infected HCT116 cells (LIVE/DEAD kit); type: cell-based, human; conditions: 5FU or Nutlin-3, 48 hours
# Description: FIG. 2. DnaK negatively affects p53 activities and Mycoplasma infection reduces the effect of anti-cancer drugs. (A) DnaK reduces p53-associated activities in HCT116 cells. Levels of p53, p21, Bax and PUMA proteins were analyzed in control, vector and DnaK transfected cells at different time-points (2, 8 and 16 hours). Expression of DnaK was verified using the anti-V5 antibody. NT: not transfected; VT: vector transfected; DnaK: DnaK transfected; M: media; D: DMSO; N: Nutlin. β-act: β-actin. Band intensity was measured by densitometric analysis. Numbers above bands indicate fold increase above level of nutlin-treated DnaK-transfected cells, normalized for the levels of β-actin. (B) DnaK increases cell cycle progression. HCT116 cells were transfected with a DnaK-expressing vector and subsequently analyzed for cell cycle progression. Data were collected 16-24 hours after transfection. Results represent mean and standard deviations of 5 different experiments. […] Results are expressed as percent cell viability over control (uninfected cells in media alone were considered as 100%). Mean difference is shown. *=p<0.001—calculated using Poisson regression.
# HCT116 cells (colon carcinoma cell line) were obtained from ATCC. […] In all experiments cell viability was calculated as a percentage relative to the control cultures. […]
# [4] = test system: primary murine cancer cells constitutively expressing DnaK; experiment: cells; conditions: Mus musculus, read-out: cell viability
# [5] = target: M. tuberculosis DnaK (Mycobacterium tuberculosis, UniProt P9WMJ9); conditions: previously demonstrated; cited from earlier work
# [6] = test system: HCT116 cells; experiment: HCT116 cell viability (trypan blue) with cisplatin, exogenous DnaKs and DnaK inhibitor (Example 4); type: cell-based, human
# Description: After 24 h, both eM-DnaK and eF-DnaK were added to the cultures at a concentration of 10 ug/ml. […] Parallel cultures of untreated cells were the negative control. […] After 48 h of treatment with the anti-cancer drugs, cell monolayers were washed in PBS, trypsinized and cell viability was measured using the trypan blue assay. The trypan blue exclusion assay allows for a direct identification and enumeration of live (unstained) and dead (blue) cells in the given population.
# More in detail, we pre-treated both DnaKs with Telaprevir (25 μg/ml) before adding them to the culture of HCT116 cells. After 3 h of incubation the complex was added to the culture. After 24 h the cells were treated with the anti-cancer drugs and then subjected to count with trypan blue as previously described. Parallel cultures of cells treated with the drugs and DnaKs not complexed with Telaprevir were used as control.
# [7] = target: Recombinant purified exogenous Mycoplasma fermentans DnaK-V5 protein (eM-DnaK) (Mycoplasma fermentans); experiment: SPR (BIAcore T100), eM-DnaK immobilized on CM5 chip (2274.9 RU), ARV-1502 as analyte
# [8] = target: Mycoplasma fermentans DnaK-V5, expressed inside cells (codon-optimized DnaK vector transfected into (Mycoplasma fermentans)); experiment: cell-based or functional assay
compound,measurement,setting,value
"O=c1[nH]cc(F)c(=O)[nH]1 [5FU, 5-Fluorouracil]",viability at 75 µM,"[1]; read-out: cell viability, AGS, drug alone (eF-DnaK experiment), Cisplatin 2 μM or 5FU 75 μM, 48 h, % of untreated cells",31%
same,viability at 75 µM,"[1]; read-out: cell viability, AGS, drug alone (eM-DnaK experiment), Cisplatin 25 μM or 5FU 75 μM, 48 h, % of untreated cells",15%
same,viability at 75 µM,"[1]; read-out: cell viability, AGS, drug in the presence of eF-DnaK (10 ug/ml), Cisplatin 2 μM or 5FU 75 μM, 48 h",42%
same,viability at 75 µM,"[1]; read-out: cell viability, AGS, drug in the presence of eM-DnaK (10 ug/ml), Cisplatin 25 μM or 5FU 75 μM, 48 h",33%
same,viability at 75 µM,"[2]; read-out: cell viability, HCT116, drug alone (eF-DnaK experiment), Cisplatin 2 μM or 5FU 75 μM, % of untreated cells",14%
same,viability at 75 µM,"[2]; read-out: cell viability, HCT116, drug alone (eM-DnaK experiment), Cisplatin 25 μM or 5FU 75 μM, % of untreated cells",14%
same,viability at 75 µM,"[2]; read-out: cell viability, HCT116, drug in the presence of eF-DnaK (10 ug/ml), Cisplatin 2 μM or 5FU 75 μM",17%
same,viability at 75 µM,"[2]; read-out: cell viability, HCT116, drug in the presence of eM-DnaK (10 ug/ml), Cisplatin 25 μM or 5FU 75 μM",16%
same,effect of Mycoplasma infection on drug activity (cell viability),[3],resistance to these anti-cancer drugs
same,viability at 75 µM,[4],55%
"COc1ccc(C2=N[C@@H](c3ccc(Cl)cc3)[C@@H](c3ccc(Cl)cc3)N2C(=O)N2CCNC(=O)C2)c(OC(C)C)c1 [Nutlin, Nutlin-3]",effect of Mycoplasma infection on drug activity (cell viability),[3],resistance to these anti-cancer drugs
"CCC[C@H](NC(=O)[C@@H]1[C@H]2CCC[C@H]2CN1C(=O)[C@@H](NC(=O)[C@@H](NC(=O)c1cnccn1)C1CCCCC1)C(C)(C)C)C(=O)C(=O)NC1CC1 [Telaprevir, (3S,3aS,6aR)-2-[(2S)-2-[[(2S)-2-cyclohexyl-2-(pyrazine-2-carbonylamino)acetyl]amino]-3,3-dimethylbutanoyl]-N-[(3S)-1-(cyclopropylamino)-1,2-dioxohexan-3-yl]-3,3a,4,5,6,6a-hexahydro-1H-cyclopenta[c]pyrrole-3-carboxamide]",DnaK binding and ATPase activity,[5],bind to M. tuberculosis DnaK substrate-binding domain and to reduce its ATPase activity
same,restoration of cisplatin anti-cancer activity,"[6]; HCT116, cisplatin in the presence of eM-DnaK or eF-DnaK pre-treated with Telaprevir (25 μg/ml)",restoration of the original anti-cancer activity
"COc1cc(C(=O)NS(=O)(=O)c2ccccc2C)ccc1Cc1cn(C)c2ccc(NC(=O)OC3CCCC3)cc12 [Zafirlukast, zafirlukast]",restoration of cisplatin anticancer activity,"[6]; HCT116, cisplatin in the presence of DnaK from M. fermentans and F. nucleatum (FIG. 9)",restores anticancer activity of cisplatin
N.N.[Cl][Pt][Cl] [cisplatin],blunting of the anti-cancer effect of the drug,"[6]; HCT116, cisplatin in the presence of eM-DnaK or eF-DnaK",40-50%
ARV-1502 (peptide),pKd,[7],5.72
same,"cell viability of DnaK-expressing primary murine cancer cells, 5FU plus ARV-1502",[8],40%
